# Measurements published in patent US10881107B2, “Antimicrobial compositions containing alkylpyrazines and their uses” (ROOMBIOTIC GMBH, priority 2015, dated 2021).
# Assay: antimicrobial activity test of alkyl pyrazine compounds or mixtures
# Type: cell-based
# Source text: Several alkyl pyrazine compounds or mixtures thereof have been tested for their antimicrobial activity.
Compound,Antimicrobial activity,Degree of antimicrobiai activity
"Cc1cnc(C)c(C)n1 [2,3,5-Trimethylpyrazine, reference compound]",No,–
CC(C)Cc1cnccn1 [2-Isobutylpyrazine],Yes,Strong
COc1nccnc1CC(C)C [2-Isobutyl-3-methoxypyrazine],Yes,Strong
CC(C)c1cnccn1 [2-Isopropylpyrazine],Yes,Strong
"Cc1nccnc1C [2,3-Dimethylpyrazine, reference compound]",Yes,Weak
Cc1nccnc1CC(C)C [2-Isobutyl-3-methylpyrazine],Yes,Strong
"CC(=O)c1cnccn1 [2-Acetylpyrazine, reference compound]",No,–
Cc1nc(C(C)C)c(C(C)C)nc1C(C)C [TS-73],No,–
"Cc1cnc(C)cn1 [2,5-Dimethylpyrazine, reference compound]",Yes,Weak
